Test results: ChEMBL document CHEMBL4004842, “Design, synthesis and biological evaluation of novel non-peptide boronic acid derivatives as proteasome inhibitors” (Eur J Med Chem, 2017)
pIC50: −log10 of the molar value. The source made the active and inactive calls. The calls are words filed in the database; no cut-off is given here.

Columns and labels:
[1] = target: T1, Proteasome Macropain subunit MB1 (Homo sapiens) (UniProt P28074); test: Inhibition of chymotrypsin-like activity of human 20S proteasome at 100 nM using Suc-Leu-Leu-Val-Tyr-AMC as substrate by fluorescence assay relative to control
T1 sequence (whole entry): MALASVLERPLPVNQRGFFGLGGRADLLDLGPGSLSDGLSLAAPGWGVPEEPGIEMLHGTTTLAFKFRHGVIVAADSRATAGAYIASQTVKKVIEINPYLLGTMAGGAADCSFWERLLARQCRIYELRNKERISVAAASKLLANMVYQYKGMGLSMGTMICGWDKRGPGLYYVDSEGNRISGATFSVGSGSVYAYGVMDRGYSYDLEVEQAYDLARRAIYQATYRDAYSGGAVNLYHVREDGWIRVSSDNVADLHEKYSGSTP

[2] = target: T1, Proteasome Macropain subunit MB1 (Homo sapiens); test: Inhibition of chymotrypsin-like activity of human 20S proteasome at 1 uM using Suc-Leu-Leu-Val-Tyr-AMC as substrate by fluorescence assay relative to control
[3] = target: T2, Proteasome Macropain subunit MB1 (Homo sapiens, UniProt P28074); test: Inhibition of chymotrypsin-like activity of human 20S proteasome using Suc-Leu-Leu-Val-Tyr-AMC as substrate by fluorescence assay
T2 sequence (P28074 whole entry): T1 sequence (whole entry)

HL-60 = test: Antiproliferative activity against human HL60 cells after 72 hrs by SRB assay; assay type: functional, cell-based; details: HL-60, 72 h
RPMI-8226 = test: Antiproliferative activity against human RPMI8226 cells after 72 hrs by SRB assay; assay type: functional, cell-based; details: RPMI-8226, 72 h
A2780 = test: Antiproliferative activity against human A2780 cells after 72 hrs by SRB assay; assay type: functional, cell-based; details: A2780, 72 h
[4] = Metabolic stability in Sprague-Dawley rat liver microsomes assessed as compound remaining at 20 uM preincubated for 5 mins followed by NADPH addition measured after 20 mins by HPLC analysis; assay type: ADME, microsome; details: read-out: Stability
A549 = test: Antiproliferative activity against human A549 cells after 72 hrs by SRB assay; assay type: functional, cell-based; details: A549, 72 h
MDA-MB-231 = test: Antiproliferative activity against human MDA-MB-231 cells after 72 hrs by SRB assay; assay type: functional, cell-based; details: MDA-MB-231, 72 h
[5] = target: T2, Proteasome Macropain subunit MB1; test: Inhibition of chymotrypsin-like activity of human LCL-derived 20S proteasome using Suc-LLVY-AMC as substrate preincubated with enzyme followed by substrate addition measured after 30 mins by fluorescence assay
Homo sapiens = species: Homo sapiens; test: Inhibition of 20S proteasome activity in human MDA-MB-231 cells assessed as accumulation of ubiquitinated proteins at 50 nM by Western blot method; assay type: cell-based
[6] = Drug metabolism in human plasma administered as iv bolus dose after 30 mins; assay type: ADME, organism-based; details: read-out: Drug metabolism

Row | SMILES | inhibition [1] | inhibition [2] | further results
1 | CC1=C(NCC(=O)N[C@@H](CC(C)C)B(O)O)C(=O)c2ccccc2C1=O | 65.9% | > 50% | 
2 | CC1=C(N[C@@H](Cc2ccccc2)C(=O)N[C@@H](CC(C)C)B(O)O)C(=O)c2ccccc2C1=O | 84.7% | > 50% | pIC50 [3]: 7.59
3 | CC(C)C[C@H](NC(=O)CNC1=C(Cl)C(=O)c2ccccc2C1=O)B(O)O | 67.7% | > 50% | 
4 | CC(C)C[C@H](NC(=O)[C@H](Cc1ccccc1)NC(=O)c1cnccn1)B(O)O [BORTEZOMIB] |  |  | pIC50 (HL-60): 8.49; pIC50 (RPMI-8226): 8.17; pIC50 (A2780): 7.54; remaining at 20 min, 20 µM [4]: 44%; pIC50 (A549): 8.60; pIC50 (MDA-MB-231): 8.19
5 | C[C@@H](CO)NC(=O)c1ccccc1O |  |  | pIC50 [5]: 4.61
6 | CC(C)C[C@H](NC(=O)[C@H](Cc1ccccc1)NC1=C(Cl)C(=O)c2ccccc2C1=O)B(O)O | 86.7% | > 50% | pIC50 [3]: 7.61
7 | O=CN(O)CCC[C@@H](NC(=O)[C@H](CO)NC(=O)[C@@H]1COC(c2ccccc2O)=N1)C(=O)NCCC(=O)N[C@@H]1CCCN(O)C1=O |  |  | pIC50 [5]: 4.40
8 | CC(C)C[C@H](NC(=O)CNC(=O)c1cc(Cl)ccc1Cl)B(O)O [IXAZOMIB] |  |  | metabolised at 0.5 h [6]: 90%
9 | CC1=C(N[C@@H](CC(C)C)C(=O)N[C@@H](CC(C)C)B(O)O)C(=O)c2ccccc2C1=O | 31.4% | > 50% | 
10 | CC(C)C[C@H](NC(=O)[C@H](CC(C)C)NC1=C(Cl)C(=O)c2ccccc2C1=O)B(O)O | 43.5% | > 50% | 

Further lines, with some results ahead:

Row | inhibition [1] | inhibition [2] | SMILES | further results
11 | 42.3% | > 50% | CC1=C(N[C@H](C(=O)N[C@@H](CC(C)C)B(O)O)C(C)C)C(=O)c2ccccc2C1=O | 
12 | 69.2% | > 50% | CC(C)C[C@H](NC(=O)[C@@H](NC1=CC(=O)c2ccccc2C1=O)C(C)C)B(O)O | 
13 | 47.4% | > 50% | CC(C)C[C@H](NC(=O)[C@@H](NC1=C(Cl)C(=O)c2ccccc2C1=O)C(C)C)B(O)O | 
14 | 79.8% | > 50% | CC(C)C[C@H](NC(=O)[C@H](CC(C)C)NC1=CC(=O)c2ccccc2C1=O)B(O)O | pIC50 [3]: 7.35
15 | 64.8% | > 50% | CC(C)C[C@H](NC(=O)[C@H](C)NC1=C(Cl)C(=O)c2ccccc2C1=O)B(O)O | 
16 | 90.3% | > 50% | CC(C)C[C@H](NC(=O)[C@H](Cc1ccccc1)NC1=CC(=O)c2ccccc2C1=O)B(O)O | pIC50 (HL-60): 5.96; pIC50 (RPMI-8226): 5.96; pIC50 [3]: 7.94; pIC50 (A2780): 6.33; remaining at 20 min, 20 µM [4]: 60%; pIC50 (A549): 6.17; pIC50 (MDA-MB-231): 7.42; inhibition (Homo sapiens): Active
17 | 84.9% | > 50% | CC(C)C[C@H](NC(=O)CNC1=CC(=O)c2ccccc2C1=O)B(O)O | pIC50 (HL-60): 5.45; pIC50 (RPMI-8226): 5.46; pIC50 [3]: 7.64; pIC50 (A2780): 5.43; pIC50 (A549): 5.54; pIC50 (MDA-MB-231): 5.90; inhibition (Homo sapiens): Active
18 | 67.5% | > 50% | CC(C)C[C@H](NC(=O)[C@H](C)NC1=CC(=O)c2ccccc2C1=O)B(O)O | 
19 | 52.3% | > 50% | CC1=C(N[C@@H](C)C(=O)N[C@@H](CC(C)C)B(O)O)C(=O)c2ccccc2C1=O | 
